# Test results: ChEMBL document CHEMBL1136896, “Synthesis and biological evaluation of arylhydrazinocyanoacrylates and N-aryl pyrazolecarboxylates” (2009)
# What was measured:
# Type in all cases: functional
# Cladosporium cucumerinum = assay: Fungicidal activity against Cladosporium cucumerinum assessed as inhibition of mycelium growth at 50 mg/L after 72 hrs
# Bel-7402 [1] = assay: Antitumor activity against human Bel7402 cells at 100 uM/L after 72 hrs by MTT assay; conditions: Bel-7402, 72 h
# HL-60 [2] = assay: Antitumor activity against human HL60 cells at 1 uM/L after 72 hrs by MTT assay; conditions: HL-60, 72 h
# [3] = system: Botryosphaeria berengeriana; assay: Fungicidal activity against Physalospora pyricola assessed as inhibition of mycelium growth at 50 mg/L after 72 hrs
# Medicago sativa [4] = assay: Herbicidal activity against Medicago sativa at 1.5 kg/hectare administered preemergence of first true leaf measured after 10 days; conditions: pre-emergence, 240 h
# Bel-7402 [5] = assay: Antitumor activity against human Bel7402 cells at 1 uM/L after 72 hrs by MTT assay; conditions: Bel-7402, 72 h
# Brassica napus [6] = assay: Herbicidal activity against Brassica napus L. at 1.5 kg/hectare administered preemergence of first true leaf measured after 10 days; conditions: pre-emergence, 240 h
# Amaranthus retroflexus [7] = assay: Herbicidal activity against Amaranthus retroflexus at 1.5 kg/hectare administered preemergence of first true leaf measured after 10 days; conditions: pre-emergence, 240 h
# Brassica napus [8] = assay: Herbicidal activity against Brassica napus at 1.5 kg/hectare administered postemergence of first true leaf measured after 10 days; conditions: post-emergence, 240 h
# Digitaria sanguinalis [9] = assay: Herbicidal activity against Digitaria sanguinalis (L.) Scop. at 1.5 kg/hectare administered preemergence of first true leaf measured after 10 days; conditions: pre-emergence, 240 h
# Bel-7402 [10] = assay: Antitumor activity against human Bel7402 cells at 10 uM/L after 72 hrs by MTT assay; conditions: Bel-7402, 72 h
# Amaranthus retroflexus [11] = assay: Herbicidal activity against Amaranthus retroflexus at 1.5 kg/hectare administered postemergence of first true leaf measured after 10 days; conditions: post-emergence, 240 h
# HL-60 [12] = assay: Antitumor activity against human HL60 cells at 1000 uM/L after 72 hrs by MTT assay; conditions: HL-60, 72 h
# Fusarium graminearum = assay: Fungicidal activity against Gibberella zeae assessed as inhibition of mycelium growth at 50 mg/L after 72 hrs
# Mycosphaerella arachidis = assay: Fungicidal activity against Cercospora arachidicola assessed as inhibition of mycelium growth at 50 mg/L after 72 hrs
# HL-60 [13] = assay: Antitumor activity against human HL60 cells at 100 uM/L after 72 hrs by MTT assay; conditions: HL-60, 72 h
# Alternaria solani = assay: Fungicidal activity against Alternaria solani assessed as inhibition of mycelium growth at 50 mg/L after 72 hrs
# HL-60 [14] = assay: Antitumor activity against human HL60 cells at 10 uM/L after 72 hrs by MTT assay; conditions: HL-60, 72 h
# Cucumis sativus = assay: Growth regulatory activity in cucumber assessed as root growth at 10 mg/L incubated in dark for 5 days
# Medicago sativa [15] = assay: Herbicidal activity against Medicago sativa at 1.5 kg/hectare administered postemergence of first true leaf measured after 10 days; conditions: post-emergence, 240 h
# Digitaria sanguinalis [16] = assay: Herbicidal activity against Digitaria sanguinalis at 1.5 kg/hectare administered postemergence of first true leaf measured after 10 days; conditions: post-emergence, 240 h
# Bel-7402 [17] = assay: Antitumor activity against human Bel7402 cells at 1000 uM/L after 72 hrs by MTT assay; conditions: Bel-7402, 72 h
SMILES,inhibition at 50 µg/mL (Cladosporium cucumerinum) [%],inhibition at 100 µM (Bel-7402 [1]) [%],inhibition at 1 µM (HL-60 [2]) [%],inhibition at 50 µg/mL [3] [%],inhibition at 1500 g/ha (Medicago sativa [4]) [%],inhibition at 1 µM (Bel-7402 [5]) [%],inhibition at 1500 g/ha (Brassica napus [6]) [%],inhibition at 1500 g/ha (Amaranthus retroflexus [7]) [%],inhibition at 1500 g/ha (Brassica napus [8]) [%],inhibition at 1500 g/ha (Digitaria sanguinalis [9]) [%],inhibition at 10 µM (Bel-7402 [10]) [%],inhibition at 1500 g/ha (Amaranthus retroflexus [11]) [%],inhibition at 1000 µM (HL-60 [12]) [%],inhibition at 50 µg/mL (Fusarium graminearum) [%],inhibition at 50 µg/mL (Mycosphaerella arachidis) [%],inhibition at 100 µM (HL-60 [13]) [%],inhibition at 50 µg/mL (Alternaria solani) [%],inhibition at 10 µM (HL-60 [14]) [%],Activity (Cucumis sativus) [%],inhibition at 1500 g/ha (Medicago sativa [15]) [%],further results
CCOCCOC(=O)c1c(CC)nn(-c2ccc([N+](=O)[O-])cc2)c1N,36.4,0,0.8,40,0,0,0,0,15,0,0,0,41.5,11.1,39.2,13.1,8,1.3,5.6,0,inhibition at 1500 g/ha (Digitaria sanguinalis [16]): 0%; inhibition at 1000 µM (Bel-7402 [17]): 45.2%
CCOCCOC(=O)c1c(SC)nn(-c2ccc([N+](=O)[O-])cc2)c1N,12.7,4.2,2.4,13.3,0,5.5,0,0,0,0,0,0,28.5,51.1,11.8,22.3,8,0,54.4,38.3,inhibition at 1500 g/ha (Digitaria sanguinalis [16]): 0%; inhibition at 1000 µM (Bel-7402 [17]): 48.4%
CCOCCOC(=O)/C(C#N)=C(\NNc1c(Cl)cc(Cl)cc1Cl)C(C)C,8.3,9,0,6.7,0,5.2,0,0,0,0,12.7,13.3,80.3,4.8,18.2,20.8,10,0,-2.2,21,inhibition at 1500 g/ha (Digitaria sanguinalis [16]): 17.9%; inhibition at 1000 µM (Bel-7402 [17]): 84.3%
CCOCCOC(=O)/C(C#N)=C(/CC)NNc1cc(Cl)c(Cl)cc1Cl,13.9,0,8.3,36,0,0,0,5.9,0,3.8,0,15.6,80.4,9.6,21.3,7.3,10,11.8,-39,4.7,inhibition at 1500 g/ha (Digitaria sanguinalis [16]): 0%; inhibition at 1000 µM (Bel-7402 [17]): 94.5%
CCOCCOC(=O)/C(C#N)=C(/CC)NNc1cccc(Cl)c1Cl,13.9,24.9,21.2,65.3,0,11.6,0,5.9,4.3,0,12.1,15.6,69.4,14.4,24.2,50,20,26.8,-12.7,3.3,inhibition at 1500 g/ha (Digitaria sanguinalis [16]): 5.4%; inhibition at 1000 µM (Bel-7402 [17]): 55.3%
CCOCCOC(=O)/C(C#N)=C(/CC)NNc1ccc(Cl)cc1Cl,38.9,0,0,76,0,0,0,0,0,0,0,18,57.2,28.6,51.5,0,40,0,-5.2,0,inhibition at 1500 g/ha (Digitaria sanguinalis [16]): 0%; inhibition at 1000 µM (Bel-7402 [17]): 0%
CCOCCOC(=O)/C(C#N)=C(\NNc1ccc(Cl)cc1Cl)C(C)C,22.2,6.5,0,73.3,0,5.3,0,0,1.6,3.8,4.3,3.9,73.2,4.8,51.5,17.6,40,6,-27.8,7.5,inhibition at 1500 g/ha (Digitaria sanguinalis [16]): 17.9%; inhibition at 1000 µM (Bel-7402 [17]): 45.9%
CCOCCOC(=O)c1c(SC)nn(-c2ccc(Cl)cc2Cl)c1N,32.7,0,4.3,46.7,0,0,30,0,0,0,0,0,56.1,42.2,47.1,16.9,16,8.4,17.8,0,inhibition at 1500 g/ha (Digitaria sanguinalis [16]): 0%; inhibition at 1000 µM (Bel-7402 [17]): 46.7%
